In PubChem BioAssay (NCI):
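How tested: cells in 96-well plates exposed to compound for 48 hours at five concentrations. The concentration for 50% growth inhibition is given as GI50. TGI: concentration producing complete growth inhibition.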

Columns and labels:
Experiment in all cases: growth of human tumour cells (NCI), 48 h
OVCAR-3 ovarian = system: OVCAR-3 ovarian
NCI-H226 lung = system: NCI-H226 lung
CAKI-1 renal = system: CAKI-1 renal
EKVX NSCLC = system: EKVX NSCLC
ACHN renal = system: ACHN renal
NCI-H460 lung = system: NCI-H460 lung
SNB-19 CNS = system: SNB-19 CNS
HCC-2998 colon = system: HCC-2998 colon
IGROV1 ovarian = system: IGROV1 ovarian
A549 NSCLC = system: A549 NSCLC

| Compound | GI50 (OVCAR-3 ovarian) [µM] | TGI (OVCAR-3 ovarian) [µM] | GI50 (NCI-H226 lung) [µM] | TGI (NCI-H226 lung) [µM] | GI50 (CAKI-1 renal) [µM] | TGI (CAKI-1 renal) [µM] | GI50 (EKVX NSCLC) [µM] | TGI (EKVX NSCLC) [µM] | GI50 (ACHN renal) [µM] | TGI (ACHN renal) [µM] | GI50 (NCI-H460 lung) [µM] | TGI (NCI-H460 lung) [µM] | GI50 (SNB-19 CNS) [µM] | TGI (SNB-19 CNS) [µM] | GI50 (HCC-2998 colon) [µM] | TGI (HCC-2998 colon) [µM] | GI50 (IGROV1 ovarian) [µM] | TGI (IGROV1 ovarian) [µM] | GI50 (A549 NSCLC) [µM] | TGI (A549 NSCLC) [µM] |
| --- | --- | --- | --- | --- | --- | --- | --- | --- | --- | --- | --- | --- | --- | --- | --- | --- | --- | --- | --- | --- |
| OCCCCC#Cc1ccccc1C#Cc1cccc(O)c1 | 20 | 44.1 | 22 | 47.3 | 16.2 | 33.6 | 23.5 | 57 | 19.1 | 41.6 | 18.5 | 40.7 | 15.5 | 32.8 | 19.1 | 35.5 | 16.8 | 33.3 | 15.7 | 32.2 |
| O=C(N/N=C\c1cc(Br)ccc1O)c1ccncc1 | 0.435 | 39.8 | 1.86 | 32.6 | 1.04 | > 100 | 1.8 | 38.5 | 2.37 | > 100 | 1.25 | > 100 | 5.65 | > 100 | 1.81 | > 100 | 3.51 | > 100 | 4.27 | > 100 |
| COc1ccccc1/C=C/c1cnccn1 |  | > 10 |  | > 10 |  | > 10 |  | > 10 |  | > 10 |  | > 10 |  | > 10 |  | > 10 |  | > 10 |  | > 10 |
| CCN(CC)CC(C)(C)C(=O)/C=C/c1ccc(Cl)c(Cl)c1 | 1.53 | 2.88 | 1.71 | 3.35 | 1.35 | 2.74 | 1.69 | 3.1 | 1.61 | 3.09 | 2.07 | 4.36 | 1.82 | 3.54 | 1.61 | 3.08 | 2.01 | 4.95 | 2.38 | 4.88 |
| CCN(CC)CCNCC(=O)Oc1ccc(/C=C/C(=O)CC(=O)/C=C/c2ccc(OC(=O)CNCCN(CC)CC)c(OC)c2)cc1OC | 4.11 | > 100 | 6.97 | 22.1 | 3.2 | 15.8 | 2.01 | 5.4 | 5.28 | 20.8 | 3.41 | 22.2 | 4.94 | 20.2 | 2.1 | 4.36 | 4.04 | 8.94 | 6.73 | 39.8 |
| COC(=O)C12C3C4C5(C(=O)OC)C(C1C35C(=O)N(C(C)C)C(C)C)C42C(=O)N(C(C)C)C(C)C (stereo not given) |  | > 50 |  | > 50 |  | > 50 |  | > 50 |  | > 50 |  | > 50 |  | > 50 |  | > 50 |  | > 50 |  | > 50 |
| CC(=O)O[C@@H]1C[C@]2(C(C)C)O[C@@]1(C)[C@@H]1CCC(C)=C1[C@@H]2OC(=O)/C=C/c1ccccc1 | 22.5 | > 100 | 29.1 | > 100 | 13 | > 100 | 20 | > 100 | 4.49 | > 100 | 30.9 | > 100 | 85.3 | > 100 | 68.1 | > 100 | > 100 | > 100 | 47 | > 100 |
| N#C/C(=C\c1ccc(O)c(O)c1)C(N)=O |  | 86.1 |  | > 100 |  | > 100 |  | > 100 |  | > 100 |  | > 100 |  | > 100 |  | > 100 |  | > 100 |  | > 100 |
| N#CC(C(=O)/C(=N/Nc1nc(=S)[nH]n1N)C(C#N)c1ccccc1)c1ccccc1 (stereo not given) |  | > 100 |  | > 100 |  | > 100 |  | > 100 |  | > 100 |  | > 100 |  | > 100 |  | > 100 |  | > 100 |  | > 100 |
| CCCS(=O)(=O)Nc1ccc(Nc2c3ccccc3nc3ccccc23)c(OC)c1 |  | 7.86 |  | 13 |  | 13.7 |  | 28.8 |  | 4.02 |  | 2.6 |  | 8.98 |  | 6.3 |  | 18.2 |  | 5.99 |
| Cc1cc(NC(=O)c2ccc(C)c(Nc3nccc(-c4cccnc4)n3)c2)cc(-n2cnc(C)c2)c1 | 1.87 | 4.83 | 1.68 | 5.39 | 2.18 | 7.15 | 4.27 | 21.4 | 0.0734 | 3.96 | 0.0794 | 4.16 | 5.28 | 18.1 | 17.1 | > 35.6 | 3.93 | 13.5 | 0.492 | 8.7 |
| COc1cc2c(cc1OC)C13CCN4CC5=CCOC6CC(=O)N2C1C6C5CC43O (stereo not given) |  | > 100 |  | > 100 |  | > 100 |  | > 100 |  | > 100 |  | > 100 |  | > 100 |  | > 100 |  | > 100 |  | > 100 |
| O=C(O)c1ccccc1-c1ccccc1C(=O)Nc1ccc2c(c1)Cc1cc(F)ccc1-2 |  | 45.6 |  | > 100 |  | > 100 |  | 77.3 |  | 64.2 |  | 68.2 |  | > 100 |  | 33.8 |  | > 100 |  | 85.9 |
| CN(C)Cc1c[nH]c2c1C(=O)c1c(c(O)c3ccccc3c1O)C2=O | 2.44 | 13.9 | 17 | 33.3 | 10.8 | 23.9 | 0.603 | 5.28 | 7.08 | 20.1 | 3.54 | 16 | 8.94 | 43.4 | 6.61 | 21.9 | 3.34 | 37.2 | 7.59 | 20.6 |
| COC(=O)[C@@H](NC(=O)[C@@H](OC)[C@@H]1Cc2cc3cc(OC4CC(OC5CC(O)C(O)C(C)O5)C(O)C(C)O4)c(C)c(O)c3c(O)c2C(=O)[C@H]1OC1CC(OC2CC(OC3CC(C)(O)C(O)C(C)O3)C(O)C(C)O2)C(O)C(C)O1)C(C)C (stereo not given in full) | 0.165 | > 32.5 | 0.109 | 0.963 | 0.107 | 1.67 | 0.162 | > 32.5 | 0.0956 | 3.7 | 0.111 | 5.7 | 0.157 | > 32.5 | 0.206 | > 32.5 | 0.101 | > 32.5 | 0.141 | > 32.5 |
